Test: solubility in solvents
Assay type: physicochemical

With “hydrazide de l'acide 10-methoxy raubasinique” the solubilité (dichlorhydrate, in organic solvents) was “très soluble”.

In the case of `C[C@@H]1OC=C(C(=O)NN)[C@H]2C[C@H]3c4[nH]c5ccccc5c4CCN3C[C@H]12` [hydrazide de l'acide Raubasinique, Hydrazide de l'acide Raubasinique], the solubilité (in a mixture pyridine-eau) was “soluble”, the solubilité (in méthanol) was “très soluble” and the solubilité (in n- butanol) was “très soluble”. For the same molecule, the solubilité (in the other solvents) was “peu soluble”.

— patent EP0003269A1, “Pentacyclic derivatives, process for their preparation and pharmaceutical compositions containing them” (SCIENCE UNION ET Cie SOCIETE FRANCAISE DE RECHERCHE MEDICALE, priority 1977, dated 1979)
